Assay results reported in paper PMC10897015, “Investigation of anti-nociceptive, anti-inflammatory potential and ADMET studies of pure compounds isolated from Isodon rugosus Wall. ex Benth” (Frontiers in Pharmacology, 2024).
Where “and” joins values, the source holds several entries; their conditions need not be identical. Equal entries are not always repeated. Where two headings read alike, the source gives them in different places. Marks after values point to notes of the source that are not given here.

What was measured:
[1] = target: T1, COX-2 (Homo sapiens, UniProt P35354); assay: Cyclooxygenase-2 inhibitory activity; type: biochemical; conditions: for inhibition at 62.5 µg/mL / inhibition at 250 µg/mL / inhibition at 500 µg/mL / inhibition at 1000 µg/mL: read-out: % inhibition, COX-2 (mean ± SEM); for Percent Inhibition (COX-2), single replicates: replicates 1-3; for IC50: COX-2
T1 sequence (P35354 18-604): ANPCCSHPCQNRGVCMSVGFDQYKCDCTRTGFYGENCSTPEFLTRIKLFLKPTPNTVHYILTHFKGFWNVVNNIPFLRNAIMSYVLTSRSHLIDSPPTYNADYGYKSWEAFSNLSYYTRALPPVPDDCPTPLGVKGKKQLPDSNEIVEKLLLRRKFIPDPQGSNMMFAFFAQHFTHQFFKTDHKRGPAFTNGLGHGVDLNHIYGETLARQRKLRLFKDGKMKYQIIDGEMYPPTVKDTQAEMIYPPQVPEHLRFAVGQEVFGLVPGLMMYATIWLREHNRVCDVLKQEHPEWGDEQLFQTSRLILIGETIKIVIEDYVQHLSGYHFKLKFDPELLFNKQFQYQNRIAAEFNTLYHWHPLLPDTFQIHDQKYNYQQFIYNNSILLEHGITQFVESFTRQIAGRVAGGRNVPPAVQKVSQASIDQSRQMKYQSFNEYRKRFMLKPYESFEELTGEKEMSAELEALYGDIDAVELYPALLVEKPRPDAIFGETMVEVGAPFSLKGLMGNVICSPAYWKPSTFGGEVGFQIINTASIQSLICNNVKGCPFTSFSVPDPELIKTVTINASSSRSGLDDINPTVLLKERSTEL
Method: An enzyme solution with a concentration of 300 U/ml was prepared and activated using ice for 5 min with a 50 µL cofactor solution containing glutathione (0.9 mM), TMPD (N,N,N,N_tetramethyl-p-phenylenediaminedihydrochloride) (0.24 mM), and hematin (1 mM) in Tris buffer (0.1 M) with pH 8. The enzyme solution (60 µL) and test samples (20 µL) with various concentrations were incubated at room temperature for 5 minutes. Celecoxib was used as a positive control in the current assay. The absorbance of the samples was measured at 570 nm after the samples had been incubated for 5 min. Arachidonic acid (30 mM, 20 µL) was added to initiate the reaction. The percent inhibition was calculated from the absorbance value per unit time.

[2] = test system: mice; assay: Carrageenan-induced paw edema; type: in vivo; conditions: for % edema volume inhibition (mean): aspirin 10 mg/kg; for Paw edema percent inhibition, individual values / Paw edema, individual values: single animals
Method: The animals under study were divided into different groups. Prior to the experiment, the animals had only access to water. […] Additionally, the isolated compounds being tested were given 30 min before injecting 0.05 ml of 1% carrageenan into the sub-plantar region of the paw. To measure the volume changes in the paw, a digital plethysmometer was employed. Readings were taken before and after the carrageenan injection at hourly intervals over a total period of 5 h.

[3] = test system: Swiss albino mice; assay: Formalin test with opioid receptor involvement; type: in vivo; conditions: for formalin induced pain, licking time, individual values: single animals
Method: An anti-nociceptive assessment was performed on Swiss albino mice of both sexes, sourced from the National Institute of Health, Islamabad, Pakistan. […] Mice of either sex were divided into different groups, with five mice in each group. […]
The analgesic activity of I. rugosus was assessed through a formalin-induced licking test. The test samples were administered orally at specified doses.

[4] = first phase, compounds 50 mg/kg, Mor 5 mg/kg, Nal 1 mg/kg
[5] = second phase, compounds 50 mg/kg, Mor 5 mg/kg, Nal 1 mg/kg

Compound: O=C(O)C=Cc1ccc(O)c(O)c1 [Compound 1, 3,4-dihydroxy-cinnamic acid]
- % inhibition, COX-2 (mean ± SEM) ([1]; 62.5 µg/ml, listed as Comp 1): 51.9833%
- inhibition at 62.5 µg/mL ([1]; 62.5 µg/ml): 51.6 ± 1.2%
- % inhibition, COX-2 (mean ± SEM) ([1]; 250 µg/ml, listed as Comp 1): 62.5167%
- inhibition at 250 µg/mL ([1]; 250 µg/ml): 62.5 ± 0.84%
- % inhibition, COX-2 (mean ± SEM) ([1]; 500 µg/ml, listed as Comp 1): 68.4433%
- inhibition at 500 µg/mL ([1]; 500 µg/ml): 68.42 ± 0.64%
- % inhibition, COX-2 (mean ± SEM) ([1]; 1000 µg/ml): 72.63 ± 0.57 %
- inhibition at 1000 µg/mL ([1]; 1000 µg/ml): 72.8%
- Percent Inhibition (COX-2), single replicates ([1]; 62.5, listed as Comp 1): 51.85% and 51.98% and 52.12%
- Percent Inhibition (COX-2), single replicates ([1]; 125, listed as Comp 1): 58.82% and 58.96% and 58.41%
- Percent Inhibition (COX-2), single replicates ([1]; 250, listed as Comp 1): 62.79% and 63.2% and 61.56%
- Percent Inhibition (COX-2), single replicates ([1]; 500, listed as Comp 1): 68.4% and 67.99% and 68.94%
- Percent Inhibition (COX-2), single replicates ([1]; 1000, listed as Comp 1): 72.37% and 73.56% and 71.96%
- % edema volume inhibition (mean) ([2]; 1st hour after carrageenan): 48.042%
- % edema volume inhibition (mean) ([2]; 2nd hour after carrageenan): 54.02%
- % edema volume inhibition (mean) ([2]; 3rd hour after carrageenan): 54.008%
- % edema volume inhibition (mean) ([2]; 4th hour after carrageenan): 56.40 ± 0.42%
- % edema volume inhibition (mean) ([2]; 4th hour after carrageenan, listed as Comp 1): 56.094%
- % edema volume inhibition (mean) ([2]; 5th hour after carrageenan): 53.076%
- paw edema inhibition ([2]; at various intervals): > 50%
- Paw edema percent inhibition, individual values ([2]; hour 1, listed as Comp 1): 50.39% and 48.96% and 47.65% and 47.13% and 46.08%
- Paw edema, individual values ([2]; hour 1, listed as Comp 1): 0.38 and 0.391 and 0.401 and 0.405 and 0.413
- Paw edema percent inhibition, individual values ([2]; hour 2, listed as Comp 1): 53.99% and 52.64% and 55.48% and 52.1% and 55.89%
- Paw edema, individual values ([2]; hour 2, listed as Comp 1): 0.34 and 0.35 and 0.329 and 0.354 and 0.326
- Paw edema percent inhibition, individual values ([2]; hour 3, listed as Comp 1): 54.46% and 55.39% and 53.53% and 52.73% and 53.93%
- Paw edema, individual values ([2]; hour 3, listed as Comp 1): 0.342 and 0.335 and 0.349 and 0.355 and 0.346
- Paw edema percent inhibition, individual values ([2]; hour 4, listed as Comp 1): 56.75% and 58.72% and 56.09% and 54.78% and 54.13%
- Paw edema, individual values ([2]; hour 4, listed as Comp 1): 0.33 and 0.315 and 0.335 and 0.345 and 0.35
- Paw edema percent inhibition, individual values ([2]; hour 5, listed as Comp 1): 54.17% and 56.22% and 50.75% and 53.76% and 50.48%
- Paw edema, individual values ([2]; hour 5, listed as Comp 1): 0.335 and 0.32 and 0.36 and 0.338 and 0.362
- formalin induced pain, licking time, individual values ([3]; 0-5 minutes, listed as Comp 1): 16.3 and 17.41 and 18.2
- formalin induced pain, licking time, individual values ([3]; 15-30 minutes, listed as Comp 1): 27.57 and 28.5 and 29.36
- Total time spent in licking 0–5 min [3, 4]: 17.30 ± 0.77 s
- Total time spent in licking, % inhibition (0–5 min) [3, 4]: 69.45%
- Total time spent in licking 0–5 min ([3]; first phase, compounds 50 mg/kg, Mor 5 mg/kg, Nal 1 mg/kg, listed as Comp 1): 17.3033 s
- Total time spent in licking 15–30 min [3, 5]: 28.48 ± 0.58 s
- Total time spent in licking, % inhibition (15–30 min) [3, 5]: 63.97^*** %
- Total time spent in licking 15–30 min ([3]; second phase, compounds 50 mg/kg, Mor 5 mg/kg, Nal 1 mg/kg, listed as Comp 1): 28.4767 s

Compound: O=C(CCc1ccc(O)cc1)c1c(O)cc(O)cc1O [Compound 2, 2-4-4-6-tetrahydroxy-dihydrochalcone]
- % inhibition, COX-2 (mean ± SEM) ([1]; 62.5 µg/ml, listed as Comp 2): 31.8267%
- inhibition at 62.5 µg/mL ([1]; 62.5 µg/ml): 31.9 ± 0.92%
- % inhibition, COX-2 (mean ± SEM) ([1]; 250 µg/ml, listed as Comp 2): 41.1767%
- inhibition at 250 µg/mL ([1]; 250 µg/ml): 41.1 ± 0.24%
- % inhibition, COX-2 (mean ± SEM) ([1]; 500 µg/ml, listed as Comp 2): 45.1433%
- inhibition at 500 µg/mL ([1]; 500 µg/ml): 45.1 ± 0.22%
- % inhibition, COX-2 (mean ± SEM) ([1]; 1000 µg/ml, listed as Comp 2): 52.9867%
- inhibition at 1000 µg/mL ([1]; 1000 µg/ml): 53 ± 0.79%
- Percent Inhibition (COX-2), single replicates ([1]; 62.5, listed as Comp 2): 31.46% and 31.74% and 32.28%
- Percent Inhibition (COX-2), single replicates ([1]; 125, listed as Comp 2): 37.07% and 37.62% and 35.7%
- Percent Inhibition (COX-2), single replicates ([1]; 250, listed as Comp 2): 40.49% and 41.18% and 41.86%
- Percent Inhibition (COX-2), single replicates ([1]; 500, listed as Comp 2): 45.69% and 44.6% and 45.14%
- Percent Inhibition (COX-2), single replicates ([1]; 1000, listed as Comp 2): 50.07% and 54.17% and 54.72%
- IC50 ([1]; read-out: IC50): 2880 µM
- IC50 ([1]; read-out: IC50 (µg/ml) (converted)): 2880 µM
- % edema volume inhibition (mean) ([2]; 1st hour after carrageenan, listed as Comp 2): 36.72%
- % edema volume inhibition (mean) ([2]; 2nd hour after carrageenan): 37.45%
- % edema volume inhibition (mean) ([2]; 3rd hour after carrageenan): 39.6788%
- % edema volume inhibition (mean) ([2]; 4th hour after carrageenan): 32.922%
- % edema volume inhibition (mean) ([2]; 5th hour after carrageenan): 29.246%
- Paw edema percent inhibition, individual values ([2]; hour 1, listed as Comp 2): 42.03% and 38.64% and 36.29% and 31.91% and 34.73%
- Paw edema, individual values ([2]; hour 1, listed as Comp 2): 0.44 and 0.47 and 0.488 and 0.521 and 0.5
- Paw edema percent inhibition, individual values ([2]; hour 2, listed as Comp 2): 38.57% and 37.62% and 36.26% and 39.35%
- Paw edema, individual values ([2]; hour 2, listed as Comp 2): 0.454 and 0.461 and 0.471 and 0.45 and 0.457
- Paw edema percent inhibition, individual values ([2]; hour 3, listed as Comp 2): 40.08% and 38.48% and 38.75% and 40.75% and 40.334%
- Paw edema, individual values ([2]; hour 3, listed as Comp 2): 0.45 and 0.462 and 0.46 and 0.445 and 0.449
- Paw edema percent inhibition, individual values ([2]; hour 4, listed as Comp 2): 32.11% and 31.19% and 31.85% and 32.63% and 36.83%
- Paw edema, individual values ([2]; hour 4, listed as Comp 2): 0.518 and 0.525 and 0.52 and 0.514 and 0.482
- Paw edema percent inhibition, individual values ([2]; hour 5, listed as Comp 2): 29.96% and 29.27% and 30.23% and 28.18% and 28.59%
- Paw edema, individual values ([2]; hour 5, listed as Comp 2): 0.512 and 0.517 and 0.51 and 0.525 and 0.522
- formalin induced pain, licking time, individual values ([3]; 0-5 minutes, listed as Comp 2): 51.46 and 50.12 and 53.09
- formalin induced pain, licking time, individual values ([3]; 15-30 minutes, listed as Comp 2): 66.34 and 68.12 and 69.02
- Total time spent in licking 0–5 min [3, 4]: 51.55 ± 0.99 s
- Total time spent in licking 0–5 min ([3]; first phase, compounds 50 mg/kg, Mor 5 mg/kg, Nal 1 mg/kg, listed as Comp 2): 51.5567 s
- Total time spent in licking 15–30 min [3, 5]: 67.83 ± 0.57 s
- Total time spent in licking 15–30 min ([3]; second phase, compounds 50 mg/kg, Mor 5 mg/kg, Nal 1 mg/kg, listed as Comp 2): 67.8267 s
